Reference: paper PMC10233829 (ACS Omega, 2023)
Values after ≈ are worked out from the molar mass of the structure shown.

How the values were obtained:
E. coli 600 = test: MIC, twofold microdilution, clinical strain; type: cell-based, Escherichia coli; settings: Escherichia coli, 600, 18 h
K. pneumoniae 510 = test: MIC, twofold microdilution, clinical strain; type: cell-based, Klebsiella pneumoniae; settings: Klebsiella pneumoniae, 510; clinical strain, 18 h
[1] = tested on: S. epidermidis ATCC 12228; test: MIC, twofold microdilution, standard strain; type: cell-based; settings: Staphylococcus epidermidis, ATCC12228, 18 h
S. aureus ATCC 29213 = test: MIC, twofold microdilution, standard strain; type: cell-based; settings: Staphylococcus aureus, ATCC29213, 18 h
S. aureus T5591 = test: MIC, twofold microdilution, clinical strain; type: cell-based, Staphylococcus aureus; settings: for MIC: Staphylococcus aureus, T5591, 18 h
PC3 cells = test: MTT assay, cytotoxic activity; type: cell-based, human; settings: Homo sapiens, PC-3, 72 h, MTT, 72 h
Experimental: Metastatic prostate cancer (PC3) and human immortal keratinocyte (HaCaT) cell lines were purchased from the American Type Culture Collection (ATCC, Rockville, MD, USA) and cultured in MEM (minimal essential medium, Thermo Sci, USA), RPMI 1640 (Roswell Park Memorial Institute, Biowest SAS, France), and DMEM (Dulbecco’s Modified Eagle’s Medium, Biowest SAS, France). Cells were seeded in 6 mL medium in a tissue culture flask (50 mL) in a 37 °C/5% CO2 humidified incubator. […] MTT analysis was performed according to a previous study.[59] Untreated cells were used as controls. Cell absorbance results were inserted into the formula for the relative MTT level (%). It allows to calculate the viability of cells under the influence of the tested compounds. Cell viability was expressed as the percentage of MTT reduction in cells treated with tested compounds compared to the control sample. The relative MTT level was calculated using the formula [100%] = A/B × 100% where A—the test sample absorbance and B—the control sample absorbance.

S. aureus ATCC 6538 = test: MIC, twofold microdilution, standard strain; type: cell-based, Staphylococcus aureus; settings: Staphylococcus aureus, ATCC6538; standard strain, 18 h
S. epidermidis 5253 = test: MIC, twofold microdilution, clinical strain; type: cell-based, Staphylococcus epidermidis; settings: Staphylococcus epidermidis, 5253, 18 h
P. aeruginosa 37 = test: MIC, twofold microdilution, clinical strain; type: cell-based; settings: Pseudomonas aeruginosa, 18 h
E. coli ATCC 25922 = test: MIC, twofold microdilution, standard strain; type: cell-based, Escherichia coli; settings: Escherichia coli, ATCC25922; standard strain, 18 h
S. aureus T5595 = test: MIC, twofold microdilution, clinical strain; type: cell-based, Staphylococcus aureus; settings: for MIC: Staphylococcus aureus, T5595, 18 h
[2] = tested on: clinical bacterial strains; test: MIC, clinical isolates as groups of strains; type: cell-based; settings: for MIC: clinical strains, read-out: MIC against selected E. coli and E. cloacae strains
M. tuberculosis H37Rv = test: Tuberculostatic activity, Microplate Alamar Blue Assay (MIC); type: cell-based, Mycobacterium tuberculosis; settings: Mycobacterium tuberculosis, H37RV; MABA; read-out: MIC M. tuberculosis H37Rv
S. aureus 180 = test: MIC, twofold microdilution, clinical strain; type: cell-based; settings: Staphylococcus aureus, 18 h
E. coli 520 = test: MIC, twofold microdilution, clinical strain; type: cell-based; settings: Escherichia coli, 18 h
[3] = tested on: Staphylococci (standard strains); test: MIC, standard Gram-positive strains as a panel; type: cell-based, S. aureus, S. epidermidis; settings: standard Gram-positive strains of Table 1; read-out: MIC toward standard Staphylococci (range over strains)
[4] = MTT assay, cytotoxic activity; type: cell-based; settings: human, HaCaT cells (immortal keratinocytes); MTT, 72 h, normal cell line; read-out: IC50 HaCaT
Experimental: Cells were seeded in 6 mL medium in a tissue culture flask (50 mL) in a 37 °C/5% CO2 humidified incubator. […] MTT analysis was performed according to a previous study.[59] Untreated cells were used as controls. Cell absorbance results were inserted into the formula for the relative MTT level (%). It allows to calculate the viability of cells under the influence of the tested compounds. Cell viability was expressed as the percentage of MTT reduction in cells treated with tested compounds compared to the control sample. The relative MTT level was calculated using the formula [100%] = A/B × 100% where A—the test sample absorbance and B—the control sample absorbance.

S. epidermidis 4341 = test: MIC, twofold microdilution, clinical strain; type: cell-based; settings: Staphylococcus epidermidis, 18 h
S. aureus 5595 = test: MIC, twofold microdilution, clinical strain; type: cell-based; settings: Staphylococcus aureus, 18 h
P. aeruginosa ATCC 15442 = test: MIC, twofold microdilution, standard strain; type: cell-based, Pseudomonas aeruginosa; settings: Pseudomonas aeruginosa, ATCC15442; standard strain, 18 h
S. aureus ATCC 25923 = test: MIC, twofold microdilution, standard strain; type: cell-based; settings: Staphylococcus aureus, ATCC25923, 18 h
P. aeruginosa 659 = test: MIC, twofold microdilution, clinical strain; type: cell-based; settings: Pseudomonas aeruginosa, 18 h
E. coli 951 = test: MIC, twofold microdilution, clinical strain; type: cell-based; settings: Escherichia coli, 18 h
E. cloacae 8 = test: MIC, twofold microdilution, clinical strain; type: cell-based, Escherichia cloacae; settings: Enterobacter cloacae, 8; clinical strain, 18 h
[5] = tested on: S. epidermidis ATCC 35984; test: MIC, twofold microdilution, standard strain; type: cell-based; settings: Staphylococcus epidermidis, ATCC35984, 18 h
K. pneumoniae 28 = test: MIC, twofold microdilution, clinical strain; type: cell-based; settings: Klebsiella pneumoniae, 18 h
[6] = tested on: M. tuberculosis Spec. 192; test: Tuberculostatic activity, Microplate Alamar Blue Assay (MIC); type: cell-based; settings: Mycobacterium tuberculosis, MABA, read-out: MIC M. tuberculosis Spec. 192 (sensitive to tuberculostatics)
S. pasteuri KR 4358 = test: MIC, twofold microdilution, clinical strain; type: cell-based; settings: Staphylococcus pasteuri, KR4358, 18 h
S. epidermidis KR4243/1 = test: MIC, twofold microdilution, clinical strain; type: cell-based; settings: Staphylococcus epidermidis, 18 h
S. aureus NCTC 4163 = test: MIC, twofold microdilution, standard strain; type: cell-based; settings: Staphylococcus aureus, NCTC4163, 18 h

SMILES: O=C(O)c1cn(C2CC2)c2cc(N3CCN(C(=O)CCCCCBr)CC3)c(F)cc2c1=O [Compound 12, 7-[4-(6-Bromohexanoyl)-piperazin-1-yl]-1-cyclopropyl-6-fluoro-4-oxo-1,4-dihydro-quinoline-3-carboxylic Acid]
- MIC (E. coli 600): 0.4 µg/mL (≈ 0.787 µM)
- MIC (K. pneumoniae 510): > 25.6 µg/mL
- MIC [1]: 1.6 µg/mL (≈ 3.15 µM)
- MIC (S. aureus ATCC 29213): 1.6 µg/mL (≈ 3.15 µM)
- MIC (S. aureus T5591): 0.8 µg/mL (≈ 1.57 µM)
- IC50 (PC3 cells): 29.7 ± 5 µM
- MIC (S. aureus ATCC 6538): 1.6 µg/mL (≈ 3.15 µM)
- MIC (S. epidermidis 5253): > 25.6 µg/mL
- MIC (P. aeruginosa 37): > 25.6 µg/mL
- MIC (E. coli ATCC 25922): 1.6 µg/mL (≈ 3.15 µM)
- MIC (S. aureus T5595): 0.8 µg/mL (≈ 1.57 µM)
- MIC [2]: 0.1 to 0.8 µg/mL (≈ 0.197 to 1.57 µM)
- MIC (M. tuberculosis H37Rv): 1 µg/mL (≈ 1.97 µM)
- MIC (S. aureus 180): 0.5 µg/mL (≈ 0.984 µM)
- MIC (E. coli 520): 0.8 µg/mL (≈ 1.57 µM)
- MIC [3]: 0.8 to 1.6 µg/mL (≈ 1.57 to 3.15 µM)
- IC50 at 72 h [4]: > 100 µM
- MIC (S. epidermidis 4341): 64 µg/mL (≈ 126 µM)
- MIC (S. aureus 5595): 0.5 µg/mL (≈ 0.984 µM)
- MIC (P. aeruginosa ATCC 15442): 25.6 µg/mL (≈ 50.4 µM)
- MIC (S. aureus ATCC 25923): 1.6 µg/mL (≈ 3.15 µM)
- MIC (P. aeruginosa 659): > 25.6 µg/mL
- MIC (E. coli 951): > 25.6 µg/mL
- MIC (E. cloacae 8): > 25.6 µg/mL
- MIC [5]: 0.8 µg/mL (≈ 1.57 µM)
- MIC (K. pneumoniae 28): > 25.6 µg/mL
- MIC [6]: 1 µg/mL (≈ 1.97 µM)
- MIC (S. pasteuri KR 4358): 0.8 µg/mL (≈ 1.57 µM)
- MIC (S. epidermidis KR4243/1): 0.8 µg/mL (≈ 1.57 µM)
- MIC (S. aureus NCTC 4163): 0.8 µg/mL (≈ 1.57 µM)

SMILES: O=C(O)c1cn(C2CC2)c2cc(N3CCN(C(=O)CC(F)(F)F)CC3)c(F)cc2c1=O [Compound 14, 7-[4-(3,3,3-Trifluoropropionyl)-piperazin-1-yl]-1-cyclopropyl-6-fluoro-4-oxo-1,4-dihydro-quinoline-3-carboxylic Acid]
- MIC (E. coli 600): 0.8 µg/mL (≈ 1.81 µM)
- MIC (K. pneumoniae 510): > 25.6 µg/mL
- MIC [1]: 0.4 µg/mL (≈ 0.906 µM)
- MIC (S. aureus ATCC 29213): 0.4 µg/mL (≈ 0.906 µM)
- MIC S. aureus T5591 (S. aureus T5591; 18 h): 0.2 µg/mL (≈ 0.453 µM)
- MIC (S. aureus T5591): 0.1 to 0.2 µg/mL (≈ 0.227 to 0.453 µM)
- IC50 (PC3 cells): 63.4 ± 5.3 µM
- MIC (S. aureus ATCC 6538): 0.4 µg/mL (≈ 0.906 µM)
- MIC (S. epidermidis 5253): > 25.6 µg/mL
- MIC (P. aeruginosa 37): > 25.6 µg/mL
- MIC (E. coli ATCC 25922): 0.8 µg/mL (≈ 1.81 µM)
- MIC S. aureus T5595 (S. aureus T5595; 18 h): 0.2 µg/mL (≈ 0.453 µM)
- MIC (S. aureus T5595): 0.1 to 0.2 µg/mL (≈ 0.227 to 0.453 µM)
- times more powerful than CP ([2]; S. aureus T5595 and T5591): 1.25–2.5 times
- MIC [2]: 0.1 to 0.8 µg/mL (≈ 0.227 to 1.81 µM)
- MIC (M. tuberculosis H37Rv): 64 µg/mL (≈ 145 µM)
- MIC (S. aureus 180): 0.5 µg/mL (≈ 1.13 µM)
- MIC (E. coli 520): 0.4 µg/mL (≈ 0.906 µM)
- IC50 at 72 h [4]: > 100 µM
- MIC (S. epidermidis 4341): > 25.6 µg/mL
- MIC (S. aureus 5595): 0.5 µg/mL (≈ 1.13 µM)
- MIC (P. aeruginosa ATCC 15442): > 25.6 µg/mL
- MIC (S. aureus ATCC 25923): 0.4 µg/mL (≈ 0.906 µM)
- MIC (P. aeruginosa 659): > 25.6 µg/mL
- MIC (E. coli 951): > 25.6 µg/mL
- MIC (E. cloacae 8): 2 µg/mL (≈ 4.53 µM)
- MIC [5]: 0.4 µg/mL (≈ 0.906 µM)
- MIC (K. pneumoniae 28): > 25.6 µg/mL
- MIC [6]: 64 µg/mL (≈ 145 µM)
- MIC (S. pasteuri KR 4358): 0.2 µg/mL (≈ 0.453 µM)
- MIC (S. epidermidis KR4243/1): 0.1 µg/mL (≈ 0.227 µM)
- MIC (S. aureus NCTC 4163): 0.4 µg/mL (≈ 0.906 µM)
